Assay [1] deals with MDCK. Type of assay: functional, cell-based. As to conditions: Influenza A virus (A/Hong Kong/7/1987(H3N2)), 0.5 to 2 uM.
Assay [2] concerns Influenza A virus. The conditions noted are these: mdck.
Assay [3] relates to Influenza A virus. The conditions noted are these: mdck. The source holds these as a separate data set.
Assay [4] concerns Matrix protein 2 (Influenza A virus (A/Udorn/307/1972(H3N2))), P0DOF8 [V27A]. As to conditions: Influenza A virus (A/udorn/1972(H3N2)).
Assay [5] has as its system MDCK. In words: Antiviral activity against Influenza A virus (A/HK/7/87(H3N2)) harboring wild type M2 channel infected in MDCK cells assessed as reduction in plaque number at 0.5 uM after 72 hrs by crystal violet staining. Type of assay: functional, cell-based. As to conditions: Influenza A virus (A/Hong Kong/7/1987(H3N2)).
Assay [6] concerns MDCK. The experiment in a line: Antiviral activity against Influenza A virus (A/HK/7/87(H3N2)) harboring wild type M2 channel infected in MDCK cells assessed as reduction in plaque size at 0.5 uM after 72 hrs by crystal violet staining. As to conditions: Influenza A virus (A/Hong Kong/7/1987(H3N2)). In kind it is functional, cell-based.

The structures appear in SMILES notation. Counter-ions that a name gives are not always drawn. Activity calls are given as the source filed them. The rule behind the calls is not given here.

Take `CC12CC34CNCC35CC1(C)C(C)(C5)C2(C)C4` (stereo unspecified): the inhibition entry in assay [1] was “Active”. The EC50 (usually the midpoint of the concentration-response curve) in assay [2] is 3 µM; in assay [3], 1.8 µM.

As for `C1=CC2C3CNCC3C1C1CC21` (stereo unspecified), the EC50 in assay [2] and in assay [3] was greater than 100 µM each time.

Regarding `C1=CC2C3CC3C1C1CN(C3CCNCC3)CC21` (stereo unspecified), the inhibition entry in assay [4] was “inactive”. In addition, the EC50 in assay [2] was less than 0.8 µM; in assay [3], no more than 0.8 µM.

As for `N=C(N)N1CC2C3CCC(C4CCC43)C2C1` (stereo unspecified), the EC50 in assay [2] and in assay [3] was greater than 100 µM throughout. In addition, the result in assay [5] and in assay [6] was Active.

As to `N=C(N)N1CC2C3C=CC(C4CC34)C2C1` (stereo unspecified), the EC50 in assay [2] and in assay [3] was greater than 100 µM each time.

For the compound `N=C(N)N1CC2C3CCC(C4CC34)C2C1` (stereo unspecified), the EC50 in assay [2] and in assay [3] was greater than 100 µM each time.

Turning to `CC12CC34CN(C(=N)N)CC35CC1(C)C(C)(C5)C2(C)C4` (stereo unspecified), the EC50 in assay [2] and in assay [3] was greater than 100 µM in each case.

As to `C1CC2C1C1CCC2C2CNCC12` (stereo unspecified), the EC50 in assay [2] and in assay [3] was greater than 100 µM throughout. Also, the result in assay [5] and in assay [6] was Active.

With `C1CC(N2CC3C4CCC(C5CC45)C3C2)CCN1` (stereo unspecified), the inhibition result in assay [4] was “inactive”. Moreover, the EC50 in assay [2] and in assay [3] was greater than 100 µM each time.

`NC12CC3CC(CC(C3)C1)C2` [AMANTADINE]: in assay [3], a half-maximal effect (EC50) was put at 30 µM. That is a double-digit micromolar value.

As for `C1=CC2C1C1C=CC2C2CNCC12` (stereo unspecified), the inhibition entry in assay [1] was “Active”. In addition, the EC50 in assay [2] was less than 0.8 µM; in assay [3], 1.3 µM.

For `N=C(N)N1CC2C3C=CC(C4C=CC43)C2C1` (stereo unspecified), in assay [1], the inhibition entry is “Active”. For the same compound, the EC50 in assay [2] and in assay [3] was greater than 100 µM in each case.

As for `C1CC2C3CNCC3C1C1CC21` (stereo unspecified), the EC50 in assay [2] and in assay [3] was greater than 100 µM each time.

Turning to `CC(N)C12CC3CC(CC(C3)C1)C2` (stereo unspecified) [RIMANTADINE HYDROCHLORIDE], the EC50 in assay [2] was determined as 5.1 µM; in assay [3], 7.6 µM.

(Values after ChEMBL document CHEMBL3286248, “Easily accessible polycyclic amines that inhibit the wild-type and amantadine-resistant mutants of the M2 channel of influenza A virus” (J Med Chem, 2014).)
